# Measured values taken from patent publication US20240384350A1, “METHODS OF TREATING CANCER WITH KINASE INHIBITORS” (BOARD OF REGENTS, THE UNIVERSITY OF TEXAS SYSTEM, priority 2021, published 2024).
# Columns and labels:
# Test in all cases: Ba/F3 drug screening, Cell Titer Glo, IC50 Mut/WT
# Format in all cases: cell-based
# [1] = target: T1, EGFR L858R (Homo sapiens, UniProt P00533, L858R); details: Classical-Like, 72 hours
# T1 construct: expressed in transfected cells; host or cells: Ba/F3 cells, retroviral pBabe-Puro vector
# [2] = target: T2, EGFR K754E (Homo sapiens, UniProt P00533, K754E); details: Classical-Like, 72 hours
# T2 construct: expressed in transfected cells; host or cells: Ba/F3 cells, retroviral pBabe-Puro vector
# [3] = target: T3, EGFR A767insASV (Homo sapiens, UniProt P00533, DUP767-769); details: Ex20, 72 hours
# T3 construct: expressed in transfected cells; host or cells: Ba/F3 cells, retroviral pBabe-Puro vector
# Experimental: Data represent the ratio of the IC50 value for a given TKI for cells with an ex20ins EGFR mutation to the IC50 value for cells with wildtype EGFR.
# (§1) Ba/F3 cell generation, drug screening, and IC50 approximations. Ba/F3 cells were obtained as a gift from Dr. Gordon Mills (MD Anderson Cancer Center), and maintained in RPMI (Sigma) containing 10% FBS, 1% penicillin/streptomycin, and 10 ng/ml recombinant mIL-3 (R&D Biosystems). To establish stable Ba/F3 cell lines, Ba/F3 cells were transduced with retroviruses containing mutant EGFR plasmids for 12-24 hours.
# (§2) After 48-72 hours of transduction, 2 μg/ml puromycin (Invitrogen) was added to Ba/F3 cell lines in complete RPMI. To select for EGFR positive cell lines, cells were stained with PE-EGFR (Biolegend) and sorted by FACS. After sorting, EGFR positive cells were maintained in RPMI containing 10% FBS, 1% penicillin/streptomycin, and 1 ng/ml EGF to support cell viability. Drug screening was performed as previously described^41,42. Shortly, cells were plated in 384-well plates (Greiner Bio-One) at 2000-3000 cells per well in technical triplicate. Seven different concentrations of TKIs or DMSO vehicle were added to reach a final volume of 40 μL per well. After 72 hours, 11 μL of Cell Titer Glo (Promega) was added to each well. Plates were incubated for a minimum of 10 minutes, and bioluminescence was determined using a FLUOstar OPTIMA plate reader (BMG LABTECH). Raw bioluminescence values were normalized to DMSO control treated cells, and values were plotted in GraphPad Prism. […] Drug screens were performed in technical triplicate on each plate and either duplicate or triplicate biological replicates. […] Statistical differences between groups were determined by ANOVA as described in the figure legends.
# [4] = target: T4, EGFR G719A T790M (Homo sapiens, UniProt P00533, G719A/T790M); details: T790M-like-3S, 72 hours
# T4 construct: expressed in transfected cells; host or cells: Ba/F3
# Experimental: (§3) Data represent the ratio of the IC50 value for a given TKI for cells with a T790M-like-3S EGFR mutation to the IC50 value for cells with wildtype EGFR.
# as §1
# (§4) After 48-72 hours of transduction, 2 μg/ml puromycin (Invitrogen) was added to Ba/F3 cell lines in complete RPMI. To select for EGFR positive cell lines, cells were stained with PE-EGFR (Biolegend) and sorted by FACS. After sorting, EGFR positive cells were maintained in RPMI containing 10% FBS, 1% penicillin/streptomycin, and 1 ng/ml EGF to support cell viability. Drug screening was performed as previously described^41,42. Shortly, cells were plated in 384-well plates (Greiner Bio-One) at 2000-3000 cells per well in technical triplicate. Seven different concentrations of TKIs or DMSO vehicle were added to reach a final volume of 40 μL per well. After 72 hours, 11 μL of Cell Titer Glo (Promega) was added to each well. Plates were incubated for a minimum of 10 minutes, and bioluminescence was determined using a FLUOstar OPTIMA plate reader (BMG LABTECH). Raw bioluminescence values were normalized to DMSO control treated cells, and values were plotted in GraphPad Prism. […] Drug screens were performed in technical triplicate on each plate and either duplicate or triplicate biological replicates.
# [5] = target: T5, EGFR S768I/T790M (Homo sapiens, UniProt P00533, S768I/T790M); details: T790M-like-3S, 72 hours
# T5 construct: expressed in transfected cells; host or cells: Ba/F3
# Experimental: as §3, §1, §4
# [6] = target: T6, EGFR G724S T790M (Homo sapiens, UniProt P00533, G724S/T790M); details: T790M-like-3R, 72 hours
# T6 construct: expressed in transfected cells; host or cells: Ba/F3
# Experimental: (§5) Data represent the ratio of the IC50 value for a given TKI for cells with a T790M-like-3R EGFR mutation to the IC50 value for cells with wildtype EGFR.
# as §1
# (§6) After 48-72 hours of transduction, 2 μg/ml puromycin (Invitrogen) was added to Ba/F3 cell lines in complete RPMI. To select for EGFR positive cell lines, cells were stained with PE-EGFR (Biolegend) and sorted by FACS. After sorting, EGFR positive cells were maintained in RPMI containing 10% FBS, 1% penicillin/streptomycin, and 1 ng/ml EGF to support cell viability. […] Shortly, cells were plated in 384-well plates (Greiner Bio-One) at 2000-3000 cells per well in technical triplicate. Seven different concentrations of TKIs or DMSO vehicle were added to reach a final volume of 40 μL per well. After 72 hours, 11 μL of Cell Titer Glo (Promega) was added to each well. Plates were incubated for a minimum of 10 minutes, and bioluminescence was determined using a FLUOstar OPTIMA plate reader (BMG LABTECH). Raw bioluminescence values were normalized to DMSO control treated cells, and values were plotted in GraphPad Prism. […] Drug screens were performed in technical triplicate on each plate and either duplicate or triplicate biological replicates. […] Statistical differences between groups were determined by ANOVA as described in the figure legends.
# [7] = target: T7, EGFR L858R T790M L718V (Homo sapiens, UniProt P00533, L718V/L858R/T790M); details: T790M-like-3R, 72 hours
# T7 construct: expressed in transfected cells; host or cells: Ba/F3
# [8] = target: T8, EGFR Ex19del T790M C797S (Homo sapiens, UniProt P00533, C797S/DEL746-750/T790M); details: T790M-like-3R, 72 hours
# T8 construct: expressed in transfected cells; host or cells: Ba/F3
# Experimental: as §5, §1, §6
# [9] = target: T9, EGFR E709_T710del insD (Homo sapiens, UniProt P00533, DEL709-709/T710D); details: Ba/F3 cells, EGFR E709_T710del insD (PACC), Mut/WT
# T9 construct: expressed in transfected cells; host or cells: Ba/F3
# Experimental: (§7) Data represent the ratio of the IC50 value for a given TKI for cells with a PACC EGFR mutation to the IC50 value for cells with wildtype EGFR.
# as §1, §4
# [10] = target: T10, EGFR E709K G719S (Homo sapiens, UniProt P00533, E709K/G719S); details: Ba/F3 cells, EGFR E709K G719S (PACC), Mut/WT
# T10 construct: expressed in transfected cells; host or cells: Ba/F3
# [11] = target: T11, EGFR G719A (Homo sapiens, UniProt P00533, G719A); details: Ba/F3 cells, EGFR G719A (PACC), Mut/WT
# T11 construct: expressed in transfected cells; host or cells: Ba/F3
# [12] = target: T12, EGFR G724S (Homo sapiens, UniProt P00533, G724S); details: Ba/F3 cells, EGFR G724S (PACC), Mut/WT
# T12 construct: expressed in transfected cells; host or cells: Ba/F3
# [13] = tested on: EGFR I740dupIPVAK; details: Ba/F3 cells, EGFR I740dupIPVAK (PACC), Mut/WT
# Experimental: as §7, §1, §4
# [14] = target: T13, EGFR L747S (Homo sapiens, UniProt P00533, L747S); details: Ba/F3 cells, EGFR L747S (PACC), Mut/WT
# T13 construct: expressed in transfected cells; host or cells: Ba/F3
# [15] = target: T14, EGFR S768I (Homo sapiens, UniProt P00533, S768I); details: Ba/F3 cells, EGFR S768I (PACC), Mut/WT
# T14 construct: expressed in transfected cells; host or cells: Ba/F3
# Experimental: as §7, §1, §2
# [16] = target: T15, EGFR V769L (Homo sapiens, UniProt P00533, V769L); details: Ba/F3 cells, EGFR V769L (PACC), Mut/WT
# T15 construct: expressed in transfected cells; host or cells: Ba/F3
# [17] = target: T16, EGFR V774M (Homo sapiens, UniProt P00533, V774M); details: Ba/F3 cells, EGFR V774M (PACC), Mut/WT
# T16 construct: host or cells: Ba/F3
# [18] = target: T17, EGFR R776C (Homo sapiens, UniProt P00533, R776C); details: Ba/F3 cells, EGFR R776C (PACC), Mut/WT
# T17 construct: host or cells: Ba/F3
# [19] = target: T18, EGFR Ex19del G724S (Homo sapiens, UniProt P00533, DEL746-750/G724S); details: Ba/F3 cells, EGFR Ex19del G724S (PACC), Mut/WT
# T18 construct: expressed in transfected cells; host or cells: Ba/F3
# Experimental: as §7, §1, §4
# [20] = target: T19, EGFR L858R/L792H (Homo sapiens, UniProt P00533, L792H/L858R); details: Ba/F3 cells, EGFR L858R/L792H (PACC), Mut/WT
# T19 construct: expressed in transfected cells; host or cells: Ba/F3
# Experimental: as §7, §1, §4
# [21] = target: T20, EGFR Ex19del G796S (Homo sapiens, UniProt P00533, DEL746-750/G796S); details: Ba/F3 cells, EGFR Ex19del G796S (PACC), Mut/WT
# T20 construct: expressed in transfected cells; host or cells: Ba/F3
# Experimental: as §7, §1, §4
# [22] = target: T21, EGFR Ex19del/C797S (Homo sapiens, UniProt P00533, C797S/DEL746-750); details: Ba/F3 cells, EGFR Ex19del/C797S (PACC), Mut/WT
# T21 construct: expressed in transfected cells; host or cells: Ba/F3
# Experimental: as §7, §1, §4
# [23] = target: T22, EGFR Ex19del L718V (Homo sapiens, UniProt P00533, DEL746-750/L718V); details: Ba/F3 cells, EGFR Ex19del L718V (PACC), Mut/WT
# T22 construct: expressed in transfected cells; host or cells: Ba/F3
# [24] = target: T23, EGFR Ex19del L718Q (Homo sapiens, UniProt P00533, DEL746-750/L718Q); details: Ba/F3 cells, EGFR Ex19del L718Q (PACC), Mut/WT
# T23 construct: expressed in transfected cells; host or cells: Ba/F3
# Experimental: as §7, §1, §4
# [25] = target: T24, EGFR L858R G724S (Homo sapiens, UniProt P00533, G724S/L858R); details: Ba/F3 cells, EGFR L858R G724S (PACC), Mut/WT
# T24 construct: expressed in transfected cells; host or cells: Ba/F3 (retroviral transduction, pBabe-Puro based vectors)
# Experimental: as §7, §1, §4
# [26] = target: T25, EGFR Ex19del T854I (Homo sapiens, UniProt P00533, DEL746-750/T854I); details: Ba/F3 cells, EGFR Ex19del T854I (PACC), Mut/WT
# T25 construct: expressed in transfected cells; host or cells: Ba/F3 (retroviral transduction, pBabe-Puro based vectors)
smiles,measurement,setting,value
C=CC(=O)Nc1cc(Nc2nccc(-n3cc(CN(C)C)c(-c4ccccc4)n3)n2)c(OC)cc1N1CCOCC1 [Lazertinib],ratio of IC50 for cells with mutant EGFR to IC50 for cells with wildtype EGFR (Mut/WT),[1],0.03702
same,ratio of IC50 for cells with mutant EGFR to IC50 for cells with wildtype EGFR (Mut/WT),[2],0.1385
same,ratio of IC50 for cells with mutant EGFR to IC50 for cells with wildtype EGFR (Mut/WT),[3],10.93
same,ratio of IC50 for cells with mutant EGFR to IC50 for cells with wildtype EGFR (Mut/WT),[4],0.00108
same,ratio of IC50 for cells with mutant EGFR to IC50 for cells with wildtype EGFR (Mut/WT),[5],0.5236
same,ratio of IC50 for cells with mutant EGFR to IC50 for cells with wildtype EGFR (Mut/WT),[6],26.17
same,ratio of IC50 for cells with mutant EGFR to IC50 for cells with wildtype EGFR (Mut/WT),[7],0.5404
same,ratio of IC50 for cells with mutant EGFR to IC50 for cells with wildtype EGFR (Mut/WT),[8],26.17
same,ratio of the IC50 value for cells with a PACC EGFR mutation to the IC50 value for cells with wildtype EGFR,[9],0.5663
same,ratio of the IC50 value for cells with a PACC EGFR mutation to the IC50 value for cells with wildtype EGFR,[10],0.2652
same,ratio of the IC50 value for cells with a PACC EGFR mutation to the IC50 value for cells with wildtype EGFR,[11],0.362
same,ratio of the IC50 value for cells with a PACC EGFR mutation to the IC50 value for cells with wildtype EGFR,[12],26.17
same,ratio of the IC50 value for cells with a PACC EGFR mutation to the IC50 value for cells with wildtype EGFR,[13],0.2883
same,ratio of the IC50 value for cells with a PACC EGFR mutation to the IC50 value for cells with wildtype EGFR,[14],1.007
same,ratio of the IC50 value for cells with a PACC EGFR mutation to the IC50 value for cells with wildtype EGFR,[15],1.26
same,ratio of the IC50 value for cells with a PACC EGFR mutation to the IC50 value for cells with wildtype EGFR,[16],1.618
same,ratio of the IC50 value for cells with a PACC EGFR mutation to the IC50 value for cells with wildtype EGFR,[17],0.9635
same,ratio of the IC50 value for cells with a PACC EGFR mutation to the IC50 value for cells with wildtype EGFR,[18],1.504
same,ratio of the IC50 value for cells with a PACC EGFR mutation to the IC50 value for cells with wildtype EGFR,[19],1.782
same,ratio of the IC50 value for cells with a PACC EGFR mutation to the IC50 value for cells with wildtype EGFR,[20],0.1416
same,ratio of the IC50 value for cells with a PACC EGFR mutation to the IC50 value for cells with wildtype EGFR,[21],1.423
same,ratio of the IC50 value for cells with a PACC EGFR mutation to the IC50 value for cells with wildtype EGFR,[22],11.82
same,ratio of the IC50 value for cells with a PACC EGFR mutation to the IC50 value for cells with wildtype EGFR,[23],0.04944
same,ratio of the IC50 value for cells with a PACC EGFR mutation to the IC50 value for cells with wildtype EGFR,[24],0.08238
same,ratio of the IC50 value for cells with a PACC EGFR mutation to the IC50 value for cells with wildtype EGFR,[25],0.0004647
same,ratio of the IC50 value for cells with a PACC EGFR mutation to the IC50 value for cells with wildtype EGFR,[26],1.44
